Assay results reported in patent US20090131354A1, “miR-126 REGULATED GENES AND PATHWAYS AS TARGETS FOR THERAPEUTIC INTERVENTION” (priority 2007, published 2009).

Legend:
Assay type in all cases: cell-based, human
Calu-3 lung cancer cells = assay: Alamar Blue proliferation assay, Calu-3
Description: (§1) The inventors assessed the therapeutic effect of hsa-miR-126 for lung cancer by using 11 individual lung cancer cell lines. To measure cellular proliferation of lung cancer cells, the following non-small cell lung cancer (NSCLC) cells were used: cells derived from lung adenocarcinoma (A549, H1299, H522, H838, Calu-3, HCC827, HCC2935), cells derived from lung squamous cell carcinoma (H520, H226), cells derived from lung bronchioalveolar carcinoma (H1650), and cells derived from lung large cell carcinoma (H460). Synthetic hsa-miR-126 (Pre-miR™-hsa-miR-126, Ambion cat. no. AM17100) or negative control (NC) miRNA (Pre-miR™ microRNA Precursor Molecule-Negative Control #2; Ambion cat. no. AM17111) was delivered via lipid-based transfection into A549, H1299, H522, H838, Calu-3, HCC827, HCC2935, H520, H1650, and H460 cells, and via electroporation into H226 cells.
Electroporation of H226 cells was carried out using the BioRad Gene Pulser Xcell™ instrument (BioRad Laboratories Inc., Hercules, Calif., USA) with the following settings: 5×10^6 cells with 5 μg miRNA in 200 μl OptiMEM (1.6 μM miRNA), square wave pulse at 250 V for 5 ms. Electroporated H226 cells were seeded at 7,000 cells per 96-well in a total volume of 100 μl. All cells except for Calu-3 cells were harvested 72 hours post transfection or electroporation for assessment of cellular proliferation. Calu-3 cells were harvested 10 days post transfection. Proliferation assays were performed using Alamar Blue (Invitrogen) following the manufacturer's instructions. As a control for inhibition of cellular proliferation, siRNA against the motor protein kinesin 11, also known as Eg5, was used. Eg5 is essential for cellular survival of most eukaryotic cells and a lack thereof leads to reduced cell proliferation and cell death (Weil et al., 2002). siEg5 was used in lipid-based transfection following the same experimental parameters that apply to miRNA. The inventors also used a DNA topoisomerase II inhibitor, etoposide, at a final concentration of 10 μM and 50 μM as an internal standard for the potency of miRNAs. […]

A549 lung cancer cells = assay: Alamar Blue proliferation assay, A549
Description: as §1
(§2) Lipid-based reverse transfections were carried out in triplicate according to a published protocol (Ovcharenko et al., 2005) and the following parameters: Cells (5,000-12,000 per 96 well), 0.1-0.2 μl Lipofectamine™ 2000 (cat. no. 11668-019, Invitrogen Corp., Carlsbad, Calif., USA) in 20 μl OptiMEM (Invitrogen), 30 nM final concentration of miRNA in 100 μl. Electroporation of H226 cells was carried out using the BioRad Gene Pulser Xcell™ instrument (BioRad Laboratories Inc., Hercules, Calif., USA) with the following settings: 5×10^6 cells with 5 μg miRNA in 200 μl OptiMEM (1.6 μM miRNA), square wave pulse at 250 V for 5 ms. Electroporated H226 cells were seeded at 7,000 cells per 96-well in a total volume of 100 μl. All cells except for Calu-3 cells were harvested 72 hours post transfection or electroporation for assessment of cellular proliferation. Calu-3 cells were harvested 10 days post transfection. Proliferation assays were performed using Alamar Blue (Invitrogen) following the manufacturer's instructions. As a control for inhibition of cellular proliferation, siRNA against the motor protein kinesin 11, also known as Eg5, was used. […]

H838 lung cancer cells = assay: Alamar Blue proliferation assay, H838; conditions: relative to NC miRNA (100%)
Description: as §1, §2

H522 lung cancer cells = assay: Alamar Blue proliferation assay, H522; conditions: relative to NC miRNA (100%)
Description: as §1, §2

H1650 lung cancer cells = assay: Alamar Blue proliferation assay, H1650
Description: as §1, §2

H520 lung cancer cells = assay: Alamar Blue proliferation assay, H520
Description: as §1, §2

H1299 lung cancer cells = assay: Alamar Blue proliferation assay, H1299; conditions: relative to NC miRNA (100%)
Description: as §1, §2

COc1cc([C@@H]2c3cc4c(cc3[C@@H](O[C@@H]3O[C@@H]5CO[C@@H](C)O[C@H]5[C@H](O)[C@H]3O)[C@H]3COC(=O)[C@H]23)OCO4)cc(OC)c1O [etoposide]
% proliferation (Calu-3 lung cancer cells; Calu-3, 10 μM, relative to NC miRNA (100%)): 20.81%
% proliferation (Calu-3 lung cancer cells; Calu-3, relative to NC miRNA (100%)): 13.53%
% proliferation (A549 lung cancer cells; A549, 50 μM, relative to NC miRNA (100%)): 42.18%
% proliferation (A549 lung cancer cells; A549, relative to NC miRNA (100%)): 49.13%
% proliferation (H838 lung cancer cells; H838, 30 nM): 89.71%
% proliferation (H838 lung cancer cells; H838, 50 μM): 36.97%
% proliferation (H522 lung cancer cells; H522, 10 μM): 82.13%
% proliferation (H522 lung cancer cells; H522, 50 μM): 61.08%
% proliferation (H1650 lung cancer cells; H1650, 10 μM, relative to NC miRNA (100%)): 90.98%
% proliferation (H1650 lung cancer cells; H1650, relative to NC miRNA (100%)): 60.31%
% proliferation (H520 lung cancer cells; H520, 50 μM, relative to NC miRNA (100%)): 48.53%
% proliferation (H520 lung cancer cells; H520, relative to NC miRNA (100%)): 66.80%
% proliferation (H1299 lung cancer cells; H1299, 10 μM): 79.65%
% proliferation (H1299 lung cancer cells; H1299, 50 μM): 54.38%

hsa-miR-126 (UCGUACCGUGAGUAAUAAUGC; synthetic pre-miR form, further chemistry not given here) [Synthetic hsa-miR-126 (Pre-miR™-hsa-miR-126, Ambion cat. no. AM17100)]
% proliferation (Calu-3 lung cancer cells; Calu-3, 30 nM, 10 days, relative to NC miRNA (100%)): 65.05%
% proliferation (A549 lung cancer cells; A549, 30 nM, 72 h, relative to NC miRNA (100%)): 84.30%
% proliferation (H838 lung cancer cells; H838, 30 nM, 72 h): 74.05%
% proliferation (H522 lung cancer cells; H522, 30 nM, 72 h): 74.62%
% proliferation (H1650 lung cancer cells; H1650, 30 nM, 72 h, relative to NC miRNA (100%)): 80.67%
% proliferation (H520 lung cancer cells; H520, 30 nM, 72 h, relative to NC miRNA (100%)): 80.99%
% proliferation (H1299 lung cancer cells; H1299, 30 nM, 72 h): 89.37%
